# Values joined by “and” are separate entries in the source; they are usually repeats but may differ in a detail not shown here. Equal values may be shown once.
# Legend:
# [1] = Serum Lutein concentration by HPLC during 24 weeks of daily capsule ingestion (bioavailability evaluation); type: in vivo
# Procedure: The evaluation was carried out over a period of 24 weeks with three (3) groups of subjects that ingested daily one gelatin capsule containing the following: • The first group ingested a capsule containing a dispersion of 20 mg of Micro-Mic™ in vegetable oil. • The second group ingested a gelatin capsule containing a dispersion of 20 mg of commercial crystalline Lutein dispersed in vegetable oil. • The third group ingested a gelatin capsule containing only vegetable oil (placebo). The three gelatin capsules were all the same color (dark brown). Blood samples were collected weekly and the serum analyzed for Lutein by HPLC, and the concentration was reported as (ng/ul) of Lutein The results obtained are shown for Baseline date, week 6th, week 12^t1, week 18th, and week 24th. The ratio between the concentrations at each week was divided by the Baseline concentration. The average of those ratios is reported at the base of each column.
# [2] = Rate of increase in MPOD (Macular Pigment Optical Density) during 24 weeks of daily capsule ingestion; type: in vivo; settings: 20 mg daily capsule
# Procedure: The evaluation was carried out over a period of 24 weeks with three (3) groups of subjects that ingested daily one gelatin capsule containing the following: • The first group ingested a capsule containing a dispersion of 20 mg of Micro-Mic™ in vegetable oil. • The second group ingested a gelatin capsule containing a dispersion of 20 mg of commercial crystalline Lutein dispersed in vegetable oil. • The third group ingested a gelatin capsule containing only vegetable oil (placebo). The three gelatin capsules were all the same color (dark brown).
# Rate of Increase in MPOD in Absorbance Units Per Week
# The serum results are a better indicator of bioavailability than the macular pigment results. It is well established that some subjects are serum responders, but macular pigment non-responders. However in this evaluation the Micro-Mic™ group mean MPOD (Macular Pigment Optical Density) exceeds that of the crystalline Lutein subjects by approximately 14%.
compound,measurement,setting,value
CC1=C[C@H](O)CC(C)(C)[C@H]1/C=C/C(C)=C/C=C/C(C)=C/C=C/C=C(C)/C=C/C=C(C)/C=C/C1=C(C)C[C@@H](O)CC1(C)C [Lutein],"Week 6/Baseline, group average","[1]; average of the subjects' ratios, week 6",4.964
same,"Week 12/Baseline, group average","[1]; average of the subjects' ratios, week 12",4.492
same,"Week 18/Baseline, group average","[1]; average of the subjects' ratios, week 18",4.345
same,"Week 24/Baseline, group average","[1]; average of the subjects' ratios, week 24",3.931
same,"Week 6-24/Baseline, group average","[1]; average of the subjects' ratios, weeks 6-24",4.433
same,concentration at 6 weeks,"[1]; human, serum, oral, 20 mg, serum, group average, week 6, 20 mg daily capsule in vegetable oil, read-out: Week 6 Lutein Conc. B, group average",632 ng/mL
same,concentration at 12 weeks,"[1]; human, serum, oral, 20 mg, serum, group average, week 12, 20 mg daily capsule in vegetable oil, read-out: Week 12 Lutein Conc. C, group average",577 ng/mL
same,concentration at 18 weeks,"[1]; human, serum, oral, 20 mg, serum, group average, week 18, 20 mg daily capsule in vegetable oil, read-out: Week 18 Lutein Conc. D, group average",545 ng/mL
same,concentration at 24 weeks,"[1]; human, serum, oral, 20 mg, serum, group average, week 24, 20 mg daily capsule in vegetable oil, read-out: Week 24 Lutein Conc. E, group average",458 ng/mL
same,Week 6/Baseline,"[1]; ratio of serum Lutein conc., individual subject, week 6",3.934 and 4.235 and 3.335 and 4.201 and 5.425 and 2.914 and 8.047 and 8.611 and 2.624 and 6.314
same,Week 12/Baseline,"[1]; ratio of serum Lutein conc., individual subject, week 12",4.398 and 3.871 and 2.494 and 5.926 and 5.242 and 4.491 and 3.439 and 5.491 and 3.867 and 5.704
same,Week 18/Baseline,"[1]; ratio of serum Lutein conc., individual subject, week 18",3.608 and 2.273 and 2.296 and 4.321 and 11.494 and 2.395 and 3.171 and 7.268 and 2.283 and 4.335
same,Week 24/Baseline,"[1]; ratio of serum Lutein conc., individual subject, week 24",2.721 and 1.327 and 1.910 and 8.589 and 4.965 and 2.051 and 2.296 and 5.931 and 4.958 and 4.563
same,Week 6-24/Baseline,"[1]; ratio of serum Lutein conc., individual subject, weeks 6-24",3.665 and 2.927 and 2.509 and 5.759 and 6.782 and 2.963 and 4.238 and 6.825 and 3.433 and 5.229
same,"Baseline Lutein Conc. A, group average","[1]; serum, group average, baseline, group later given 20 mg daily capsule",0.128 ng/µL
same,Baseline Lutein Conc. A,"[1]; serum, individual subject, baseline, group later given 20 mg daily capsule",0.268 ng/ul and 0.108 ng/ul (3×) and 0.112 ng/ul and 0.063 ng/ul and 0.151 ng/ul and 0.119 ng/ul and 0.082 ng/ul and 0.164 ng/ul
same,Week 6 Lutein Conc. B,"[1]; serum, individual subject, week 6, 20 mg daily capsule in vegetable oil",1.054 ng/µL and 0.457 ng/µL and 0.372 ng/µL and 0.265 ng/µL and 0.584 ng/µL and 0.439 ng/µL and 0.867 ng/µL and 1.028 ng/µL and 0.215 ng/µL and 1.035 ng/µL
same,Week 12 Lutein Conc. C,"[1]; serum, individual subject, week 12, 20 mg daily capsule in vegetable oil",1.179 ng/µL and 0.418 ng/µL and 0.278 ng/µL and 0.373 ng/µL and 0.564 ng/µL and 0.677 ng/µL and 0.370 ng/µL and 0.655 ng/µL and 0.317 ng/µL and 0.935 ng/µL
same,Week 18 Lutein Conc. D,"[1]; serum, individual subject, week 18, 20 mg daily capsule in vegetable oil",0.967 ng/µL and 0.246 ng/µL and 0.256 ng/µL and 0.272 ng/µL and 1.238 ng/µL and 0.361 ng/µL and 0.341 ng/µL and 0.867 ng/µL and 0.187 ng/µL and 0.711 ng/µL
same,Week 24 Lutein Conc. E,"[1]; serum, individual subject, week 24, 20 mg daily capsule in vegetable oil",0.729 ng/µL and 0.143 ng/µL and 0.213 ng/µL and 0.541 ng/µL and 0.535 ng/µL and 0.309 ng/µL and 0.247 ng/µL and 0.708 ng/µL and 0.407 ng/µL and 0.748 ng/µL
same,"Rate of Increase in MPOD, Max",[2]; group maximum,5.100E−03 Absorbance Units Per Week
same,"Rate of Increase in MPOD, Mean",[2]; group mean,1.690E−03 Absorbance Units Per Week
same,"Rate of Increase in MPOD, Median",[2]; group median,1.550E−03 Absorbance Units Per Week
same,"Rate of Increase in MPOD, Min",[2]; group minimum,−8.000E−04 Absorbance Units Per Week

# From patent US20120157547A1, “COMPOSITIONS AND APPLICATIONS OF CAROTENOIDS OF IMPROVED ABSORPTION AND BIOAVAILABILITY” (priority 2010, published 2012)
